{"source": "patent US12728126B2", "about": "“Compounds for inhibiting LY6K and methods of using same” (The Henry M. Jackson Foundation for the Advancement of …, priority 2020, dated 2026)", "key": {"[1]": {"tested_on": "PD-L1", "assay": "PD-L1 measured in live cells after IFN γ treatment", "format": "cell-based", "conditions": "serum starved, 100 ng/ml IFN γ, 2 μM drug", "description": "Cells were serum starved and treated with 100 ng/ml IFN γ with 2 μM drugs. PD-L1 was measured in live cells (using a zombie live-dead stain). The graph was plotted from three experiments. A 7.9-fold decrease in the number of cells with high PD-L1 expression was observed."}, "[2]": {"tested_on": "4T1 mouse mammary tumor cells", "assay": "4T1 syngeneic mammary tumor model, tumor growth in vivo", "design": "species or system Balb/c mice", "conditions": "4T1 model", "description": "A syngeneic mammary tumor model is used to show the effect of Ly6K small molecule inhibitors on tumor growth in vivo. 4T1 mouse model is an orthotopic allograft model (also called the spontaneous tumor metastasis model). In the 4T1 mouse model, 4T1 mouse mammary tumor cells were injected into the second mammary gland of syngenetic Balb/c mice, and the spontaneous metastasis to the lung were analyzed with a colonogenic assay. 4T1 mice bearing 50-70 mm^3 tumors were treated with NSC243928 or NSC11150 every second day at a dosage of 5 mg/kg in saline. Each group had 10 mice. Tumor measurements were performed using a Vernier caliper. The tumor volumes were calculated using equation ½*length*(width*width)."}, "[3]": {"tested_on": "TGFβ1/Smad2/3 signaling", "assay": "Western blot of TGFβ1 induced phosphorylation of Smad2/3", "format": "cell-based", "conditions": "serum starved, TGFβ1 (10 ng/mL), 2 μM, 30 minutes", "description": "(§1) Cells were serum starved overnight and then treated with TGF 13 (10 ng/mL) or IFN γ (100 ng/mL) in the presence of 2 μM NSC243928 or NSC11150 for 30 minutes followed by protein analysis using western blot. […] NSC243928 inhibited the TGFβ1 induced phosphorylation of Smad2/3; NSC11150 had no effect on TGFβ1/Smad2/3 signaling. NSC11150 inhibited IFNγ induced phosphorylation of Stat1; NSC243928 had no effect on IFNγ/Stat1 signaling."}, "[4]": {"tested_on": "IFNγ/Stat1 signaling", "assay": "Western blot of IFNγ induced phosphorylation of Stat1", "format": "cell-based", "conditions": "serum starved, IFN γ (100 ng/mL), 2 μM, 30 minutes", "description": "as §1"}, "[5]": {"tested_on": "Myeloid-derived suppressor cells (MDSCs)", "assay": "MDSCs (Cd11b and Gr1 dual positive cells) in peripheral blood of 4T1 tumor bearing mice, flow cytometry", "format": "in vivo", "conditions": "three doses of 50 mg/kg", "description": "Myeloid-derived suppressor cells (MDSCs) are a major cell type which suppress the anti-tumor response. Cd11b and Gr1 dual positive cells in lymphocytes from peripheral blood from 4T1 tumor bearing mice received Compound I and the control group (10 mice in each group).\nThree doses of Compound I (50 mg/kg) was injected via intravenously and intraperitoneally, and intravenous and peripheral blood was collected. Freshly isolated lymphocytes were stained with Cd11b and Gr-1 and a dye which can discriminated live and dead cells. The flow cytometry analysis for dual positivity was performed by gating on the live cells."}, "[6]": {"tested_on": "4T1 mammary cells", "assay": "Cell cycle analysis of 4T1 cells (DAPI, flow cytometry)", "format": "cell-based, mouse", "description": "4T1 mammary cells were plated at the same cell density. Cells were serum starved overnight. They were supplemented with medium containing 10% serum with or without indicated doses of the Compound I for 16 hours. Cells were washed with PBS to remove floating cells. Cells were collected by trypsinization and centrifugation. Cell were fixed with methanol and counted. Equal number of cells were stained with 5 mM DAPI and flow cytometry was performed on Cytoflex and for flowjo was used for cell cycle analysis."}, "[7]": {"tested_on": "PARP", "assay": "Western blot of PARP inactivation cleavage in 4T1 cells", "format": "cell-based, mouse", "conditions": "0.1 μM, 1.0 μM or 5.0 μM, 16 hours", "description": "(§2) Cancer cells accumulate various mutations in their genome, yet they are protected against DNA damage induced apoptosis. Poly (ADP-ribose) polymerase (PARP) is a protein which facilitates DNA repair, genomic stability, and inhibits programmed cell death. PARP proteins are inactivated by cleavage of caspase 3 and caspase 7 in vivo. PARP inactivation cleavage and caspase activation by western blot was studied.\n(§3) 4T1 mammary cells were plated at the same cell density. Cells were serum starved overnight. They were supplemented with medium containing 10% serum with or without doses of Compound I (0.1 μM, 1.0 μM or 5.0 μM) and for 16 hours. Equal quantity of protein was loaded for western blot analysis."}, "[8]": {"tested_on": "caspase 3", "assay": "Western blot of caspase 3 activation in 4T1 cells", "format": "cell-based, mouse", "conditions": "0.1 μM, 1.0 μM or 5.0 μM, 16 hours", "description": "as §2, §3"}, "[9]": {"tested_on": "caspase 7", "assay": "Western blot of caspase 7 activation in 4T1 cells", "format": "cell-based, mouse", "conditions": "0.1 μM, 1.0 μM or 5.0 μM, 16 hours", "description": "as §2, §3"}, "[10]": {"tested_on": "RhoA", "assay": "Western blot of motility marker RhoA in 4T1 cells", "format": "cell-based, mouse", "conditions": "0.1 μM, 1.0 μM or 5.0 μM, 16 hours", "description": "as §3"}}}
{"compound": "CCS(=O)(=O)Nc1ccc(Nc2c3ccccc3nc3ccccc23)c(OC)c1", "note": "[Compound I, N-(4-(acridin-9-ylamino)-3-methoxyphenyl)ethanesulfonamide]", "values": [{"measurement": "inhibitory effect on cells with high expression of PD-L1", "setting": "[1]", "value": "does not have inhibitory effect"}, {"measurement": "day following treatment at which inhibition on tumor growth is statistically significant", "setting": "[2]; 5 mg/kg every second day, P<0.005", "value": 3, "unit": "days"}, {"measurement": "inhibitory effect on tumor growth in vivo", "setting": "[2]; 5 mg/kg in saline every second day", "value": "significant inhibitory effects"}, {"measurement": "TGFβ1 induced phosphorylation of Smad2/3", "setting": "[3]", "value": "inhibited"}, {"measurement": "IFNγ induced phosphorylation of Stat1", "setting": "[4]", "value": "had no effect"}, {"measurement": "lower MDSCs in peripheral blood of treated mice", "setting": "[5]", "value": "more than 90%"}, {"measurement": "Cd11b and Gr-1 dual positive cells in treated group", "setting": "[5]; gated on live cells", "value": "significantly lower"}, {"measurement": "concentration of maximum apoptosis", "setting": "[6]", "value": 5, "unit": "µM"}, {"measurement": "concentration of maximum cell cycle arrest", "setting": "[6]", "value": 1, "unit": "µM"}, {"measurement": "% of cells in singlet population, 4 n", "setting": "[6]; 1.0 μM, 16 hours", "value": 47.3, "unit": "%"}, {"measurement": "% of cells in singlet population, G1", "setting": "[6]; 1.0 μM, 16 hours", "value": 1.84, "unit": "%"}, {"measurement": "% of cells in singlet population, G2", "setting": "[6]; 1.0 μM, 16 hours", "value": 39.8, "unit": "%"}, {"measurement": "% of cells in singlet population, S", "setting": "[6]; 1.0 μM, 16 hours", "value": 2.27, "unit": "%"}, {"measurement": "% of cells in singlet population, Sub G1", "setting": "[6]; 1.0 μM, 16 hours", "value": 0.59, "unit": "%"}, {"measurement": "cell cycle arrest", "setting": "[6]; 1.0 μM, 16 hours", "value": "cell cycle arrest in G2 phase-2n phase"}, {"measurement": "apoptosis", "setting": "[6]; 5.0 uM, 16 hours", "value": "massive apoptosis"}, {"measurement": "cell cycle arrest", "setting": "[6]; 5.0 uM, 16 hours", "value": "paused in G1 state"}, {"measurement": "% of cells in singlet population, 4 n", "setting": "[6]; 5.0 μM, 16 hours", "value": 0.024, "unit": "%"}, {"measurement": "% of cells in singlet population, G1", "setting": "[6]; 5.0 μM, 16 hours", "value": 67.5, "unit": "%"}, {"measurement": "% of cells in singlet population, G2", "setting": "[6]; 5.0 μM, 16 hours", "value": 0.35, "unit": "%"}, {"measurement": "% of cells in singlet population, S", "setting": "[6]; 5.0 μM, 16 hours", "value": 2.41, "unit": "%"}, {"measurement": "% of cells in singlet population, Sub G1", "setting": "[6]; 5.0 μM, 16 hours", "value": 7.38, "unit": "%"}, {"measurement": "cleavage of PARP", "setting": "[7]", "value": "Cleavage of PARP in a dose dependent manner"}, {"measurement": "caspase 3 activation", "setting": "[8]", "value": "activated"}, {"measurement": "caspase 7 activation", "setting": "[9]", "value": "activated"}, {"measurement": "marker of motility RhoA", "setting": "[10]", "value": "downregulated"}]}
